The values that follow are results of earlier work, collected in article PMC9186412, “Rational Framework for the Design of Trp- and Arg-Rich Peptide Antibiotics Against Multidrug-Resistant Bacteria” (Frontiers in Microbiology, 2022).

Where two headings read alike, the source gives them in different places.

Series [1] relates to CDC AR isolates. Details: key: S (green), susceptible; I (blue), intermediate; R (red), resistant. To be noted: data provided by the CDC, ref CDC, cited from earlier work. An excerpt:
Supplement Table_3.XLSX, sheet "CDC AR isolates profiles" | column: G(-) strains

Series [2] relates to CDC AR isolates. Details: key: S (green), susceptible; I (blue), intermediate; R (red), resistant. The settings on record: data provided by the CDC, ref CDC, cited from earlier work. This is another data set of the same source.
Setting [3] is: Staphylococcus aureus SA462, CDC AR isolate.
Where [4] appears, read: Staphylococcus aureus SA463, CDC AR isolate.
The mark [5] stands for this setting: Staphylococcus aureus SA561, CDC AR isolate.
Setting [6] is: Staphylococcus aureus SA461, CDC AR isolate.
The mark [7] stands for this setting: Enterococcus faecium EF500, CDC AR isolate.
Where [8] appears, read: Enterococcus faecium EF671, CDC AR isolate.
[9] abbreviates: Enterococcus faecium EF672, CDC AR isolate.
The mark [10] stands for this setting: Enterococcus faecium EF673, CDC AR isolate.
Setting [11] is: Acinetobacter baumannii AB273, CDC AR isolate.
[12] abbreviates: Acinetobacter baumannii AB274, CDC AR isolate.
The mark [13] stands for this setting: Acinetobacter baumannii AB275, CDC AR isolate.
Where [14] appears, read: Acinetobacter baumannii AB276, CDC AR isolate.
Where [15] appears, read: Enterobacter cloacae E62, CDC AR isolate.
Where [16] appears, read: Enterobacter cloacae E544, CDC AR isolate.
Setting [17] is: Enterobacter cloacae E545, CDC AR isolate.
The mark [18] stands for this setting: Enterobacter cloacae E546, CDC AR isolate.
The mark [19] stands for this setting: Escherichia coli EC541, CDC AR isolate.
[20] abbreviates: Escherichia coli EC543, CDC AR isolate.
Where [21] appears, read: Escherichia coli EC544, CDC AR isolate.
[22] abbreviates: Escherichia coli EC549, CDC AR isolate.
[23] abbreviates: Klebsiella pneumoniae KP542, CDC AR isolate.
Where [24] appears, read: Klebsiella pneumoniae KP548, CDC AR isolate.
Where [25] appears, read: Klebsiella pneumoniae KP550, CDC AR isolate.
Where [26] appears, read: Klebsiella pneumoniae KP552, CDC AR isolate.
Setting [27] is: Pseudomonas aeruginosa PA229, CDC AR isolate.
The mark [28] stands for this setting: Pseudomonas aeruginosa PA230, CDC AR isolate.
Where [29] appears, read: Pseudomonas aeruginosa PA231, CDC AR isolate.
Setting [30] is: Pseudomonas aeruginosa PA232, CDC AR isolate.
The mark [31] stands for this setting: Pseudomonas aeruginosa PA239, CDC AR isolate.

In the case of `CC[C@H]1OC(=O)[C@H](C)[C@@H](O[C@H]2C[C@@](C)(OC)[C@@H](O)[C@H](C)O2)[C@H](C)[C@@H](O[C@@H]2O[C@H](C)C[C@H](N(C)C)[C@H]2O)[C@](C)(O)C[C@@H](C)C(=O)[C@H](C)[C@@H](O)[C@]1(C)O` [Erythromycin], the Antibiotic susceptibility profile entry in the series on CDC AR isolates [1] (setting [3]) is “S”; with CDC AR isolates [1] (setting [4]) it was “S”; with CDC AR isolates [1] (setting [5]), “I”; in the series with CDC AR isolates [2] (setting [6]) it was “R”.

For Teicoplanin, the Antibiotic susceptibility profile entry in the series with CDC AR isolates [1] (setting [7]), in the series on CDC AR isolates [1] (setting [8]), with CDC AR isolates [1] (setting [9]) and in the series with CDC AR isolates [2] (setting [10]) was “S” each time.

As to Penicillin, the Antibiotic susceptibility profile result is “R” with CDC AR isolates [1] (setting [7]); “S” with CDC AR isolates [1] (setting [8]); “S” with CDC AR isolates [1] (setting [9]); “R” in the series with CDC AR isolates [1] (setting [3]); “R” with CDC AR isolates [1] (setting [4]); “R” in the series with CDC AR isolates [1] (setting [5]). For the same compound, the Antibiotic susceptibility profile entry in the series with CDC AR isolates [2] (setting [10]) and with CDC AR isolates [2] (setting [6]) was “S” each time.

`C[C@H]1c2cccc(O)c2C(=O)C2=C(O)[C@]3(O)C(=O)C(C(N)=O)=C(O)[C@@H](N(C)C)[C@@H]3[C@@H](O)[C@@H]21` [Doxycycline]: the Antibiotic susceptibility profile entry in the series with CDC AR isolates [1] (setting [7]) is recorded as “I”; with CDC AR isolates [1] (setting [8]) it was “S”; with CDC AR isolates [1] (setting [9]), “I”; with CDC AR isolates [1] (setting [3]), “S”; in the series with CDC AR isolates [1] (setting [4]), “S”; with CDC AR isolates [1] (setting [5]), “I”. The Antibiotic susceptibility profile entry with CDC AR isolates [2] (setting [10]) and with CDC AR isolates [2] (setting [6]) was “S” in each case.

For the compound `CNC(C)C1CCC(N)C(OC2C(N)CC(N)C(OC3OCC(C)(O)C(NC)C3O)C2O)O1` (centres unmarked) [Gentamicin], the Antibiotic susceptibility profile entry with CDC AR isolates [1] (setting [11]) is “R”; in the series with CDC AR isolates [1] (setting [12]), “R”; with CDC AR isolates [1] (setting [13]) it was “R”; in the series with CDC AR isolates [1] (setting [14]) it was “R”; in the series with CDC AR isolates [1] (setting [15]), “S”; with CDC AR isolates [1] (setting [16]), “R”. The Antibiotic susceptibility profile entry is reported as “R” in the series on CDC AR isolates [1] (setting [17]); “S” in the series on CDC AR isolates [1] (setting [18]); “S” in the series with CDC AR isolates [1] (setting [19]); “R” with CDC AR isolates [1] (setting [20]); “R” with CDC AR isolates [1] (setting [21]); “S” in the series with CDC AR isolates [1] (setting [22]). The Antibiotic susceptibility profile result in the series on CDC AR isolates [1] (setting [23]) is “R”; with CDC AR isolates [1] (setting [24]), “S”; in the series with CDC AR isolates [1] (setting [25]), “R”; in the series with CDC AR isolates [1] (setting [26]) it was “S”; with CDC AR isolates [1] (setting [27]) it was “S”; in the series on CDC AR isolates [1] (setting [28]), “R”. The Antibiotic susceptibility profile entry with CDC AR isolates [1] (setting [29]) is “R”; in the series on CDC AR isolates [1] (setting [30]) it was “R”; with CDC AR isolates [1] (setting [31]) it was “R”; in the series on CDC AR isolates [1] (setting [3]), “S”; in the series on CDC AR isolates [1] (setting [4]), “S”; with CDC AR isolates [1] (setting [5]), “S”. Moreover, the Antibiotic susceptibility profile result in the series with CDC AR isolates [2] (setting [6]) is given as “S”.

Take `C[C@H]1COc2c(N3CCN(C)CC3)c(F)cc3c(=O)c(C(=O)O)cn1c23` [Levofloxacin]: the Antibiotic susceptibility profile entry in the series on CDC AR isolates [1] (setting [11]), with CDC AR isolates [1] (setting [12]), with CDC AR isolates [1] (setting [13]), in the series on CDC AR isolates [1] (setting [14]), in the series with CDC AR isolates [1] (setting [15]) and in the series with CDC AR isolates [1] (setting [16]) was “R” throughout. In addition, the Antibiotic susceptibility profile result with CDC AR isolates [1] (setting [17]) is on record as “S”; in the series with CDC AR isolates [1] (setting [18]), “R”; in the series on CDC AR isolates [1] (setting [7]), “R”; with CDC AR isolates [1] (setting [8]), “S”; in the series on CDC AR isolates [1] (setting [9]), “S”; in the series with CDC AR isolates [1] (setting [19]), “R”. In addition, the Antibiotic susceptibility profile entry in the series on CDC AR isolates [1] (setting [20]), with CDC AR isolates [1] (setting [21]), with CDC AR isolates [1] (setting [22]), with CDC AR isolates [1] (setting [23]), in the series with CDC AR isolates [1] (setting [24]) and in the series with CDC AR isolates [1] (setting [25]) was “R” each time. Further, the Antibiotic susceptibility profile entry in the series on CDC AR isolates [1] (setting [26]), in the series on CDC AR isolates [1] (setting [27]), with CDC AR isolates [1] (setting [28]), with CDC AR isolates [1] (setting [29]), with CDC AR isolates [1] (setting [30]) and with CDC AR isolates [1] (setting [31]) was “R” in each case. In addition, the Antibiotic susceptibility profile entry with CDC AR isolates [1] (setting [3]) is “R”; with CDC AR isolates [1] (setting [4]), “S”; with CDC AR isolates [1] (setting [5]), “R”; with CDC AR isolates [2] (setting [10]), “S”; in the series on CDC AR isolates [2] (setting [6]), “R”.

Regarding `CO/N=C(\C(=O)N[C@@H]1C(=O)N2C(C(=O)O)=C(COC(C)=O)CS[C@H]12)c1csc(N)n1` [Cefotaxime], the Antibiotic susceptibility profile entry in the series on CDC AR isolates [1] (setting [11]), with CDC AR isolates [1] (setting [12]), in the series on CDC AR isolates [1] (setting [13]), in the series with CDC AR isolates [1] (setting [14]), in the series on CDC AR isolates [1] (setting [15]) and with CDC AR isolates [1] (setting [16]) was “R” each time. The Antibiotic susceptibility profile result in the series with CDC AR isolates [1] (setting [17]), in the series with CDC AR isolates [1] (setting [18]), with CDC AR isolates [1] (setting [19]), in the series on CDC AR isolates [1] (setting [20]), with CDC AR isolates [1] (setting [21]) and with CDC AR isolates [1] (setting [22]) was “R” in each case. Also, the Antibiotic susceptibility profile result in the series with CDC AR isolates [1] (setting [23]), in the series with CDC AR isolates [1] (setting [24]), in the series on CDC AR isolates [1] (setting [25]) and with CDC AR isolates [1] (setting [26]) was “R” in each case.

In the case of `C[C@@H](O)[C@H]1C(=O)N2C(C(=O)O)=C(S[C@@H]3CN[C@H](CNS(N)(=O)=O)C3)[C@H](C)[C@H]12` [Doripenem], the Antibiotic susceptibility profile entry in the series with CDC AR isolates [1] (setting [11]) is on record as “R”; in the series on CDC AR isolates [1] (setting [12]), “R”; with CDC AR isolates [1] (setting [13]) it was “R”; in the series with CDC AR isolates [1] (setting [14]) it was “R”; in the series with CDC AR isolates [1] (setting [15]), “S”; with CDC AR isolates [1] (setting [16]), “R”. Moreover, the Antibiotic susceptibility profile entry in the series on CDC AR isolates [1] (setting [17]) was “S”; in the series on CDC AR isolates [1] (setting [18]) it was “R”; with CDC AR isolates [1] (setting [19]), “S”; in the series on CDC AR isolates [1] (setting [20]), “I”; with CDC AR isolates [1] (setting [21]) it was “R”; in the series on CDC AR isolates [1] (setting [22]), “R”. In addition, the Antibiotic susceptibility profile result with CDC AR isolates [1] (setting [23]) was “I”; in the series with CDC AR isolates [1] (setting [24]), “R”; in the series with CDC AR isolates [1] (setting [25]), “R”; in the series with CDC AR isolates [1] (setting [26]), “R”; in the series with CDC AR isolates [1] (setting [27]) it was “R”; with CDC AR isolates [1] (setting [28]), “R”. Further, the values for the Antibiotic susceptibility profile result in the series with CDC AR isolates [1] (setting [29]), with CDC AR isolates [1] (setting [30]) and with CDC AR isolates [1] (setting [31]) were “R”, “S” and “R”, respectively.

As to `CN(C)c1cc(CNCC(C)(C)C)c(O)c2c1C[C@H]1C[C@H]3[C@H](N(C)C)C(O)=C(C(N)=O)C(=O)[C@@]3(O)C(O)=C1C2=O` [Omadacycline], the Antibiotic susceptibility profile entry is “R” with CDC AR isolates [1] (setting [23]), “R” with CDC AR isolates [1] (setting [24]), “R” in the series on CDC AR isolates [1] (setting [25]) and “S” with CDC AR isolates [1] (setting [26]).
